Reference: patent US12590099B2, “Inhibitors of histone deacetylase useful for the treatment or prevention of HIV infection” (Merck Sharp & Dohme LLC, priority 2018, dated 2026)
Like-named read-outs stand apart in the source and are kept apart here.

Legend:
[1] = system: KARN cells (Jurkat 2C4); assay: cells; type: cell-based; conditions: luciferase induction, 100% = 2 μM SAHA
How it was run: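 Jurkat 2C4 (KARN) cells dosed with test compounds up to 40 μM final, 0.4% DMSO, overnight at 5% CO2; luciferase read by Steady-Glo luminescence after 10 min at room temperature. DMSO set as 0% and 2 μM SAHA as 100% induction; 4-parameter fit of percent activation.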

[2] = target: T1, Recombinant human HDAC8 (Homo sapiens, UniProt Q9BY41); assay: Human HDAC enzyme inhibitor Fluor-de-Lys assay, HDAC8; type: biochemical; conditions: recombinant human HDAC8, Fluor-de-Lys assay
T1 construct: purchased Enzo Life Sciences BML-SE145-0100
T1 sequence (Q9BY41 1-377): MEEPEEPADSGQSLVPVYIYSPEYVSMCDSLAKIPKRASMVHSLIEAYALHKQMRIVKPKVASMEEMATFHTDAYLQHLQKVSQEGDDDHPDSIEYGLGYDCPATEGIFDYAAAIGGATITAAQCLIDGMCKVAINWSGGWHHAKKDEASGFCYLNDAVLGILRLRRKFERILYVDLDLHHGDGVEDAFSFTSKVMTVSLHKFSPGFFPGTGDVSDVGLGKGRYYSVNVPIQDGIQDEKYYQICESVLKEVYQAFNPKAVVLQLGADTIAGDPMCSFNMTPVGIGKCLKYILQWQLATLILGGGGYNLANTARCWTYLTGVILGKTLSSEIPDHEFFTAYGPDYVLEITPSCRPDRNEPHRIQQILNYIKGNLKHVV

[3] = Homo sapiens, Jurkat, read-out: Karn EC50 (nM) 0.1% NHS, 0.1% normal human serum
[4] = Homo sapiens, Jurkat, read-out: Karn EC50 (nM) 5% NHS, 5% normal human serum
[5] = read-out: Karn EC50 (nM) 0.1% NHS, 0.1% normal human serum
[6] = read-out: Karn EC50 (nM) 5% NHS, 5% normal human serum

SMILES | EC50 [1, 3] | EC50 [1, 4] | IC50 [2] | EC50 [1, 5] | EC50 [1, 6]
CCC(=O)CCCCC[C@H](NC(=O)C1CC12CCOCC2)c1ncc(-c2cc3ccc(C)nc3cc2OC)[nH]1 (single isomer, unassigned) [Compound 407] | 336 nM | 977 nM | > 900 nM |  | 
CCC(=O)CCCCC[C@H](NC(=O)C1CC12CCOCC2)c1ncc(-c2cc3ccc(C)nc3cc2OC)o1 (single isomer, unassigned) [Compound 409] | 811 nM | 1860 nM | > 900 nM |  | 
CCC(=O)CCCCC[C@H](NC(=O)C1CC12CCOCC2)c1ncc(-c2cc3ccc(C)nc3cc2OC)o1 (single isomer, unassigned) [Compound 410] |  |  | > 900 nM | 663 nM | 1390 nM
CCC(=O)CCCCC[C@H](NC(=O)C1CC12CCOCC2)c1ncc(-c2cc3ccc(C)nc3cc2OC)[nH]1 (single isomer, unassigned) [Compound 413] |  |  | > 900 nM | 348 nM | 1270 nM
CCC(=O)CCCCCC(NC(=O)C1CCC2(CC1)OC(=O)c1ncccc12)c1nnc(-c2cc3ccccc3nc2OC)o1 (stereo not drawn) [Compound 365] | 1550 nM | 3830 nM | 28400 nM |  | 
CCC(=O)CCCCC[C@H](NC(=O)[C@H]1CC[C@@]2(CC1)OC(=O)c1cccnc12)c1nnc(-c2cc3ccccc3nc2OC)o1 [Compound 366] | 1500 nM | 5360 nM | > 45000 nM |  | 
CCC(=O)CCCCC[C@H](NC(=O)[C@H]1CC[C@]2(CC1)OC(=O)c1ncccc12)c1nnc(-c2cc3ccccc3nc2OC)o1 [Compound 367] | 1330 nM | 4490 nM | 21400 nM |  | 
CCC(=O)CCCCC[C@H](NC(=O)[C@H]1CC[C@]2(CC1)OC(=O)c1cccnc12)c1nnc(-c2cc3ccccc3nc2OC)o1 [Compound 368] | 1570 nM | 5240 nM | 21700 nM |  | 
CCC(=O)CCCCC[C@H](NC(=O)C1=NOC2(CCN(C(C)C)CC2)C1)c1nnc(-c2cc3ccccc3nc2OC)o1 [Compound 369] | 804 nM | 1680 nM | 19900 nM |  | 
CCC(=O)CCCCC[C@H](NC(=O)C1=NOC2(CCN(C)CC2)C1)c1nnc(-c2cc3ccccc3nc2OC)o1 [Compound 370] | 752 nM | 1430 nM | 8650 nM |  | 
CCC(=O)CCCCC[C@H](NC(=O)C1=NOC2(CCN(S(C)(=O)=O)CC2)C1)c1nnc(-c2cc3ccccc3nc2OC)o1 [Compound 371] | 5000 nM | 6040 nM | > 45000 nM |  | 
CCC(=O)CCCCC[C@H](NC(=O)[C@H]1CC[C@@]2(CC1)OC(=O)c1ccncc12)c1ncc(-c2ccccc2)[nH]1 [Compound 372] | 2650 nM | 5250 nM | 7730 nM |  | 
CCC(=O)CCCCC[C@H](NC(=O)[C@H]1CC[C@@]2(CC1)OC(=O)c1cnccc12)c1ncc(-c2ccccc2)[nH]1 [Compound 373] | 1650 nM | 5340 nM | 6670 nM |  | 
CCC(=O)CCCCC[C@H](NC(=O)[C@H]1CC[C@@]2(CC1)OC(=O)c1ncccc12)c1ncc(-c2ccccc2)[nH]1 [Compound 374] | 2580 nM | 5400 nM | 8180 nM |  | 
CCC(=O)CCCCC[C@H](NC(=O)[C@H]1CC[C@@]2(CC1)OC(=O)c1cccnc12)c1ncc(-c2ccccc2)[nH]1 [Compound 375] | 1450 nM | 9330 nM | 8880 nM |  | 
CCC(=O)CCCCC[C@H](NC(=O)[C@H]1CC[C@]2(CC1)OC(=O)c1ccncc12)c1ncc(-c2ccccc2)[nH]1 [Compound 376] | 1860 nM | 3680 nM | 4840 nM |  | 
CCC(=O)CCCCC[C@H](NC(=O)[C@H]1CC[C@]2(CC1)OC(=O)c1cccnc12)c1ncc(-c2ccccc2)[nH]1 [Compound 378] | 1310 nM | 2990 nM | 2960 nM |  | 
CCC(=O)CCCCC[C@H](NC(=O)C1=NOC2(CCN(C(C)C)CC2)C1)c1ncc(-c2ccccc2)[nH]1 [Compound 379] | 472 nM | 771 nM | 3290 nM |  | 
